# Data reported in ChEMBL document CHEMBL1123144, “Studies on 4(1H)-quinazolinones. 5. Synthesis and antiinflammatory activity of 4(1H)-quinazolinone derivatives” (J Med Chem, 1985).
# Activity calls are given as the source filed them. The calls are words filed in the database; no cut-off is given here.
# Assays:
# [1] = test system: Rattus norvegicus; assay: Percent inhibition against carrageenan-induced rat paw edema at 50 mg/kg dose administered perorally; 0-10%; type: functional; conditions: route oral
# [2] = test system: Rattus norvegicus; assay: Percent inhibition against carrageenan-induced rat paw edema at 50 mg/kg dose administered perorally; 21-30%; type: functional; conditions: route oral
# [3] = test system: Rattus norvegicus; assay: Percent inhibition against carrageenan-induced rat paw edema at 50 mg/kg dose administered perorally; 31-40%; type: functional; conditions: route oral
# [4] = test system: Rattus norvegicus; assay: Percent inhibition against carrageenan-induced rat paw edema at 50 mg/kg dose administered perorally; 41-50%; type: functional; conditions: route oral
# [5] = test system: Rattus norvegicus; assay: Percent inhibition against carrageenan-induced rat paw edema at 50 mg/kg dose administered perorally; 11-20%; type: functional; conditions: route oral
# [6] = test system: Mus musculus; assay: Number of mice bearing ulcer at dose 48 mg/kg out of 5 mices tested; type: functional
# [7] = test system: Rattus norvegicus; assay: Analgesic activity by oral administration of 200 mg/kg; Not effective; type: functional, organism-based; parameters: dose 200 mg/kg
# [8] = test system: Rattus norvegicus; assay: Anti-inflammatory activity following oral administration; type: functional
# [9] = test system: Mus musculus; assay: Ulcer index by number of mice bearing ulcer at dose 48 mg/kg out of 5 mice tested; type: functional
# [10] = test system: Mus musculus; assay: Toxicity by number of mice dead at dose 500 mg/kg out of 5 mice tested by oral administration route; Value represented as 0/5; type: organism-based; parameters: dose 500 mg/kg, route oral; conditions: in vivo
# [11] = test system: Rattus norvegicus; assay: Percent inhibition against carrageenan-induced rat paw edema at 50 mg/kg dose administered perorally; type: functional; conditions: route oral
# [12] = test system: Mus musculus; assay: Number of mice bearing ulcer at dose 30 mg/kg out of 5 mices tested; type: functional
# [13] = test system: Rattus norvegicus; assay: Analgesic activity by oral administration route; type: functional
# [14] = test system: Mus musculus; assay: Ulcer index by number of mice bearing ulcer at dose 30 mg/kg out of 5 mice tested; type: functional
# [15] = test system: Mus musculus; assay: Ulcer index by number of mice bearing ulcer at dose 60 mg/kg out of 5 mice tested; type: functional
# [16] = test system: Mus musculus; assay: Toxicity by number of mice dead at dose 500 mg/kg out of 5 mice tested by oral administration route; Value represented as 1/5; type: organism-based; parameters: dose 500 mg/kg, route oral; conditions: in vivo
# [17] = test system: Mus musculus; assay: Number of mice bearing ulcer at dose 60 mg/kg out of 5 mices tested; type: functional
# [18] = test system: Mus musculus; assay: Number of mice bearing ulcer at dose 45 mg/kg out of 5 mices tested; type: functional
# [19] = test system: Mus musculus; assay: Toxicity by number of mice dead at dose 500 mg/kg out of 5 mice tested by oral administration route; Value represented as 5/5; type: organism-based; parameters: dose 500 mg/kg, route oral; conditions: in vivo
# [20] = test system: Mus musculus; assay: Ulcer index by number of mice bearing ulcer at dose 45 mg/kg out of 5 mice tested; type: functional
# [21] = test system: Rattus norvegicus; assay: Analgesic activity following oral administration at a dose 30 mg/kg; type: functional
smiles,measurement,setting,value
O=c1nc(C2CC2)n(-c2ccc(Cl)cc2)c2ccccc12,inhibition in vivo at 50 mg/kg,[1],10%
Cc1nc(=O)c2ccccc2n1-c1cccc(C(F)(F)F)c1,inhibition in vivo at 50 mg/kg,[1],10%
CC(C)c1nc(=O)c2ccccc2n1-c1cccc(C(F)(F)F)c1,inhibition in vivo at 50 mg/kg,[2],30%
CC(C)N1c2ccccc2C(=O)NC1c1ccccc1Cl (configuration not stated),inhibition in vivo at 50 mg/kg,[1],10%
Cc1ccc(-c2nc(=O)c3ccccc3n2C(C)C)cc1,inhibition in vivo at 50 mg/kg,[1],10%
CC(C)c1nc(=O)c2ccccc2n1-c1ccccc1C(N)=O,inhibition in vivo at 50 mg/kg,[1],10%
Cc1ccc2c(=O)nc(-c3ccccc3)n(C(C)C)c2c1,inhibition in vivo at 50 mg/kg,[1],10%
CC(C)n1c(-c2ccccc2)nc(=O)c2cc(F)ccc21,inhibition in vivo at 50 mg/kg,[3],40%
CC(=O)c1ccc(-n2c(C(C)C)nc(=O)c3ccccc32)cc1,inhibition in vivo at 50 mg/kg,[2],30%
CC(C)n1c(-c2ccccc2)nc(=O)c2ccccc21,inhibition in vivo at 50 mg/kg,[4],50%
CC(C)n1c(-c2ccccc2)nc(=O)c2c(Cl)cccc21,inhibition in vivo at 50 mg/kg,[5],20%
O=c1nc(C2CC2)n(-c2ccc([N+](=O)[O-])cc2)c2ccccc12,inhibition in vivo at 50 mg/kg,[1],10%
CC(C)n1c(-c2ccccc2)nc(=O)c2cc(Br)ccc21,inhibition in vivo at 50 mg/kg,[2],30%
CN(C)c1nc(=O)c2ccccc2n1-c1ccccc1,inhibition in vivo at 50 mg/kg,[1],10%
Cc1nc(=O)c2ccccc2n1-c1ccccc1,inhibition in vivo at 50 mg/kg,[1],10%
CC(C)n1c(-c2ccccc2)nc(=O)c2ccc(Cl)cc21,No. of mice,[6],3
same,ED30,[7],inactive
same,inhibition in vivo at 50 mg/kg,[4],50%
same,ED30,[8],16 mg/kg
same,Ulcer Index,[9],0.2
same,Toxicity,[10],0
O=c1nc(C2CCC2)n(-c2ccc([N+](=O)[O-])cc2)c2ccccc12,inhibition in vivo at 50 mg/kg,[1],10%
CCOC(=O)C(C)c1nc(=O)c2ccccc2n1-c1ccccc1 (configuration not stated),inhibition in vivo at 50 mg/kg,[2],30%
CC(C)c1nc(=O)c2cc(CC(=O)O)ccc2n1-c1ccccc1,inhibition in vivo at 50 mg/kg,[1],10%
CC(C)n1c(-c2ccccc2F)nc(=O)c2ccc(Cl)cc21,inhibition in vivo at 50 mg/kg,[3],40%
CC(C)c1nc(=O)c2ccccc2n1-c1ccc(Cl)cc1,inhibition in vivo at 50 mg/kg,[11],≥ 51%
CC(C)n1c(-c2ccccc2F)nc(=O)c2cc(Cl)ccc21,inhibition in vivo at 50 mg/kg,[5],20%
CCN(CC)Cc1nc(=O)c2ccccc2n1-c1ccccc1,inhibition in vivo at 50 mg/kg,[1],10%
CC(C)c1nc(=O)c2ccc(N)cc2n1-c1ccccc1,inhibition in vivo at 50 mg/kg,[5],20%
CC(C)c1nc(=O)c2ccccc2n1-c1ccc(N)cc1,inhibition in vivo at 50 mg/kg,[2],30%
CC(C)n1c(-c2ccc(N)cc2)nc(=O)c2ccccc21,inhibition in vivo at 50 mg/kg,[1],10%
CC(=O)c1ccc2c(c1)c(=O)nc(C(C)C)n2-c1ccccc1,inhibition in vivo at 50 mg/kg,[1],10%
O=C(O)CCc1nc(=O)c2ccccc2n1-c1ccccc1,inhibition in vivo at 50 mg/kg,[1],10%
Cc1ccc2c(c1)c(=O)nc(C(C)C)n2-c1ccccc1,inhibition in vivo at 50 mg/kg,[2],30%
COc1ccc2c(c1)c(=O)nc(-c1ccccc1)n2C(C)C,inhibition in vivo at 50 mg/kg,[3],40%
CC(C)n1c(-c2ccccc2)nc2ccccc2c1=O,inhibition in vivo at 50 mg/kg,[2],30%
CC(C)n1c(-c2ccc(Cl)cc2)nc(=O)c2cc(Cl)ccc21,inhibition in vivo at 50 mg/kg,[1],10%
CC(C)c1nc(=O)c2ccccc2n1-c1ccc([N+](=O)[O-])cc1,inhibition in vivo at 50 mg/kg,[3],40%
O=c1nc(C2CC2)n(-c2ccc(F)cc2)c2ccccc12,inhibition in vivo at 50 mg/kg,[11],≥ 51%
CC(C)n1c(-c2ccccc2Cl)nc(=O)c2cc(F)ccc21,inhibition in vivo at 50 mg/kg,[2],30%
CC(C)c1nc(=O)c2ccccc2n1-c1ccc(CC(=O)O)cc1,inhibition in vivo at 50 mg/kg,[5],20%
CC(C)C1NC(=O)c2ccccc2N1c1ccccc1 (configuration not stated),inhibition in vivo at 50 mg/kg,[1],10%
CC(C)c1nc2ccccc2c(=O)n1-c1ccccc1,inhibition in vivo at 50 mg/kg,[2],30%
CC(C)n1c(-c2cccc(Cl)c2)nc(=O)c2ccccc21,inhibition in vivo at 50 mg/kg,[4],50%
O=c1nc(C2CC2)n(-c2ccccc2)c2ccccc12,inhibition in vivo at 50 mg/kg,[11],≥ 51%
O=c1nc(CCl)n(-c2ccccc2)c2ccccc12,inhibition in vivo at 50 mg/kg,[1],10%
CCCCc1nc(=O)c2ccccc2n1-c1ccccc1,inhibition in vivo at 50 mg/kg,[1],10%
COc1ccc2c(c1)c(=O)nc(-c1ccccc1F)n2C(C)C,inhibition in vivo at 50 mg/kg,[2],30%
CC(C)n1c(-c2ccc(Cl)c(Cl)c2)nc(=O)c2ccccc21,inhibition in vivo at 50 mg/kg,[4],50%
CC(C)n1c(-c2ccccc2Br)nc(=O)c2ccccc21,inhibition in vivo at 50 mg/kg,[1],10%
CC(C)(C)c1nc(=O)c2ccccc2n1-c1ccccc1,inhibition in vivo at 50 mg/kg,[1],10%
CC(C)n1c(-c2ccccc2Cl)nc(=O)c2ccccc21,inhibition in vivo at 50 mg/kg,[4],50%
O=c1nc(C2CCCCCC2)n(-c2ccccc2)c2ccccc12,inhibition in vivo at 50 mg/kg,[1],10%
CC(C)n1c(-c2ccccc2)nc(=O)c2cc(Cl)ccc21,inhibition in vivo at 50 mg/kg,[4],50%
O=c1nc(CCl)n(-c2cccc(C(F)(F)F)c2)c2ccccc12,inhibition in vivo at 50 mg/kg,[1],10%
CC(C)Cc1nc(=O)c2ccccc2n1-c1ccccc1,inhibition in vivo at 50 mg/kg,[2],30%
Cc1ccc2c(-c3ccccc3)nc(=O)n(C(C)C)c2c1 [PROQUAZONE],inhibition in vivo at 50 mg/kg,[4],50%
same,No. of mice,[12],4
same,ED30,[8],10 mg/kg
same,ED30,[13],20 mg/kg
same,Ulcer Index,[14],0.12
same,Toxicity,[10],0
CC(C)n1c(-c2ccccc2F)nc(=O)c2ccccc21,Ulcer Index,[15],0.1
same,inhibition in vivo at 50 mg/kg,[11],≥ 51%
same,Toxicity,[16],1
same,ED30,[8],20 mg/kg
same,No. of mice,[17],1
same,ED30,[13],65 mg/kg
COc1ccccc1-c1nc(=O)c2ccccc2n1C(C)C,inhibition in vivo at 50 mg/kg,[1],10%
CC(C)c1nc(=O)c2ccccc2n1-c1ccccc1C(=O)O,inhibition in vivo at 50 mg/kg,[5],20%
COC(=O)CCc1nc(=O)c2ccccc2n1-c1ccccc1,inhibition in vivo at 50 mg/kg,[1],10%
Cc1ccccc1-n1c(C(C)C)nc(=O)c2ccccc21,inhibition in vivo at 50 mg/kg,[3],40%
CC(C)c1nc(=O)c2ccc(Cl)cc2n1-c1ccccc1,inhibition in vivo at 50 mg/kg,[11],≥ 51%
same,ED30,[8],21 mg/kg
same,ED30,[13],80 mg/kg
CC(C)n1c(-c2ccc(Cl)cc2)nc(=O)c2ccc(Cl)cc21,inhibition in vivo at 50 mg/kg,[2],30%
COc1ccc2c(c1)c(=O)nc(C(C)C)n2-c1ccccc1,inhibition in vivo at 50 mg/kg,[11],≥ 51%
CC(C)c1nc(=O)c2ccc([N+](=O)[O-])cc2n1-c1ccccc1,inhibition in vivo at 50 mg/kg,[1],10%
CC(C)n1c(-c2ccc(Cl)cc2)nc(=O)c2ccccc21,No. of mice,[18],0
same,Toxicity,[19],5
same,inhibition in vivo at 50 mg/kg,[4],50%
same,Ulcer Index,[20],0
same,ED30,[8],15 mg/kg
same,ED30,[13],44 mg/kg
CC(C)n1c(-c2ccc([N+](=O)[O-])cc2)nc(=O)c2ccccc21,inhibition in vivo at 50 mg/kg,[1],10%
O=c1nc(C2CCC2)n(-c2ccccc2)c2ccccc12,inhibition in vivo at 50 mg/kg,[2],30%
O=c1nc(C(F)(F)F)n(-c2ccccc2)c2ccccc12,inhibition in vivo at 50 mg/kg,[1],10%
O=c1nc(C2CCC2)n(-c2ccc(Cl)cc2)c2ccccc12,inhibition in vivo at 50 mg/kg,[2],30%
CC(C)c1nc(=O)n(-c2ccccc2)c2ccccc12,inhibition in vivo at 50 mg/kg,[1],10%
O=c1nc(C2CC2)n(-c2cccc(C(F)(F)F)c2)c2ccccc12,inhibition in vivo at 50 mg/kg,[1],10%
CCN(CC)Cc1nc(=O)c2ccccc2n1-c1cccc(C(F)(F)F)c1,inhibition in vivo at 50 mg/kg,[2],30%
CC(C)c1nc(=O)c2ccccc2n1-c1ccc(F)cc1,inhibition in vivo at 50 mg/kg,[4],50%
same,ED30,[8],30 mg/kg
same,ED30,[13],76 mg/kg
COc1cccc2c1c(=O)nc(-c1ccccc1)n2C(C)C,inhibition in vivo at 50 mg/kg,[5],20%
CC(C)n1c(-c2ccc(F)cc2)nc(=O)c2ccccc21,inhibition in vivo at 50 mg/kg,[4],50%
CC(C)n1c(-c2ccc(F)cc2)nc(=O)c2ccc(Cl)cc21,inhibition in vivo at 50 mg/kg,[2],30%
CC(C)n1c(-c2ccc(F)cc2)nc(=O)c2cc(Cl)ccc21,inhibition in vivo at 50 mg/kg,[4],50%
same,ED30,[8],18 mg/kg
same,ED30,[13],100 mg/kg
CC(C)c1nc(=O)c2ccccc2n1-c1ccccc1,ED30,[8],30 mg/kg
same,inhibition in vivo at 50 mg/kg,[3],40%
same,ED30,[21],70 mg/kg
CC(C)c1nc(=O)c2ccccc2n1-c1ccccc1Cl,inhibition in vivo at 50 mg/kg,[5],20%
CC(C)n1c(-c2ccccc2Cl)nc(=O)c2cc(Cl)ccc21,inhibition in vivo at 50 mg/kg,[4],50%
CC(C)n1c(-c2ccc(Br)cc2)nc(=O)c2ccccc21,inhibition in vivo at 50 mg/kg,[4],50%
Cc1ccc2c(=O)nc(C(C)C)n(-c3ccccc3)c2c1,inhibition in vivo at 50 mg/kg,[2],30%
